# According to US4180587A, “Ureylene phenylene anionic naphthalenesulfonic acids as complement inhibitors” (American Cyanamid Company, priority 1978, dated 1979):
# Read-outs that look alike come from different tables or passages of the source.
# Assays:
# shunt pathway = test: Test Code 036 (C-Shunt inhibitor): lysis of fragile human erythrocytes in autologous serum via shunt pathway activated by cobra venom factor; type: cell-based; details: activity in wells, twofold serial dilution
# From the text: (§1) An active inhibitor protects C2 from C1 and C4; (ii) Test Code 035 (C3-C9 inhibitor)--This test determines the ability of the late components of human complement (C3-C9) to lyse EAC 142 in the presence of appropriate dilutions of the test compound. An active inhibitor protects EAC 142 from lysis by human C3-C9; (iii) Test Code 036 (C-Shunt inhibitor)--In this test human erythrocytes rendered fragile are lysed in autologous serum via the shunt pathway activated by cobra venom factor in the presence of appropriate dilutions of the test compound. Inhibition of the shunt pathway results in failure of lysis; (iv) Forssman Vasculitis Test--Here, the well known complement dependent lesion, Forssman vasculitis, is produced in guinea pigs by intradermal injection of rabbit anti-Forssman antiserum. […]
# [1] = tested on: late components of human complement (C3-C9); test: Test Code 035 (C3-C9 inhibitor): lysis of EAC 142 by late components of human complement; type: cell-based; details: activity in wells, twofold serial dilution; higher well number indicates higher activity
# From the text: as §1
# human C1 = test: Test Code 026 (C1 inhibitor): ability of activated human C1 to destroy fluid phase human C2 in the presence of C4; type: biochemical; details: activity in wells, twofold serial dilution; higher well number indicates higher activity
# From the text: as §1
# whole complement = test: Complement Level Reduction Test: serum of dosed guinea pigs tested for whole complement by capillary tube assay; type: in vivo, guinea pig; details: intraperitoneal, 200 mg/kg
# From the text: An active inhibitor protects C2 from C1 and C4; (ii) Test Code 035 (C3-C9 inhibitor)--This test determines the ability of the late components of human complement (C3-C9) to lyse EAC 142 in the presence of appropriate dilutions of the test compound. An active inhibitor protects EAC 142 from lysis by human C3-C9; (iii) Test Code 036 (C-Shunt inhibitor)--In this test human erythrocytes rendered fragile are lysed in autologous serum via the shunt pathway activated by cobra venom factor in the presence of appropriate dilutions of the test compound. Inhibition of the shunt pathway results in failure of lysis; (iv) Forssman Vasculitis Test--Here, the well known complement dependent lesion, Forssman vasculitis, is produced in guinea pigs by intradermal injection of rabbit anti-Forssman antiserum. The lesion is measured in terms of diameter, edema and hemorrhage and the extent to which a combined index of these is inhibited by prior intraperitoneal injection of the test compound at 200 mg/kg is then reported, unless otherwise stated; (v) Forssman Shock Test--Lethal shock is produced in guinea pigs by an i.v. injection of anti-Forssman antiserum and the harmonic mean death time of treated guinea pigs is compared with that of simultaneous controls; (vi) Complement Level Reduction Test--In this test, the above dosed guinea pigs, or others, are bled for serum and the complement level is determined in undiluted serum by the capillary tube method of U.S. Pat. No. 3,876,376 and compared to undosed control guinea pigs; and (vii) Cap 50 Test--Here, appropriate amounts of the test compound are added to a pool of guinea pig serum in vitro, after which the undiluted serum capillary tube assay referred to above is run. The concentration of compound inhibiting 50% is reported.
# With reference to Table I, guinea pigs weighing about 300 g were dosed intravenously (i.v.) or intraperitoneally (i.p.) with 200 mg/kg of the test compound dissolved in saline and adjusted to pH 7-8. […] The serum was tested for whole complement using the capillary tube assay. Percent inhibition was calculated by comparison with simultaneous controls. The results appear in Table I together with results of tests code 026, 035, 036, Cap 50, % inhibition and Forssman shock.
# complement system = details: reported in literature; cited from earlier work
# [2] = reported in literature; cited from earlier work
# [3] = tested on: total hemolytic complement activity; details: in vivo; judged by reduction in total hemolytic complement activity; cited from earlier work
# [4] = tested on: total hemolytic complement activity; details: in vitro; judged by reduction in total hemolytic complement activity; cited from earlier work
molecule,measurement,setting,value
"Cc1ccc(C(=O)Nc2cc(C(=O)Nc3ccc(S(=O)(=O)[O-])c4cc(S(=O)(=O)[O-])cc(S(=O)(=O)[O-])c34)ccc2C)cc1NC(=O)Nc1cc(C(=O)Nc2cc(C(=O)Nc3ccc(S(=O)(=O)[O-])c4cc(S(=O)(=O)[O-])cc(S(=O)(=O)[O-])c34)ccc2C)ccc1C.[Na+].[Na+].[Na+].[Na+].[Na+].[Na+] [Example 3, 8,8'-[Ureylenebis[(4-methyl-3,1-phenylenecarbonyl)imino(4-methyl-3,1-phenylenecarbonyl)imino]]di-1,3,5-naphthalenetrisulfonic acid, hexasodium salt]",Shunt Inhibition 036 Wells,shunt pathway,N
same,C-Late 035 Wells,[1],+3 Wells
same,C1 026 Wells,human C1,+3 Wells
same,In Vivo Activity (Guinea Pig) % Inhibition,whole complement; 30 minutes,-58%
same,In Vivo Activity (Guinea Pig) % Inhibition,whole complement; 60 minutes,-65%
same,In Vivo Activity (Guinea Pig) % Inhibition,whole complement; 120 minutes,-77%
Cc1ccc(C(=O)Nc2ccc(S(=O)(=O)O)c3cc(S(=O)(=O)O)cc(S(=O)(=O)O)c23)cc1NC(=O)c1cccc(NC(=O)Nc2cccc(C(=O)Nc3cc(C(=O)Nc4ccc(S(=O)(=O)O)c5cc(S(=O)(=O)O)cc(S(=O)(=O)O)c45)ccc3C)c2)c1 [Suramin],C-Late 035 Wells,[1],+2 Wells
same,C1 026 Wells,human C1,+4 Wells
same,In Vivo Activity (Guinea Pig) % Inhibition,whole complement; 30 minutes,-9%
same,In Vivo Activity (Guinea Pig) % Inhibition,whole complement; 60 minutes,-17%
same,In Vivo Activity (Guinea Pig) % Inhibition,whole complement; 120 minutes,-44%
same,anticomplementary effect / activity as complement inhibitor,complement system,moderately active as a complement inhibitor
"Nc1ccc2cc(S(=O)(=O)[O-])cc(O)c2c1N=Nc1ccc(NC(=O)Nc2ccc(N=Nc3c(N)ccc4cc(S(=O)(=O)[O-])cc(O)c34)c(S(=O)(=O)[O-])c2)cc1S(=O)(=O)[O-].[Na+].[Na+].[Na+].[Na+] [chlorazol fast pink, 3,3'-ureylenebis[6-(2-amino-8-hydroxy-6-sulfo-1-naphthylazo)benzenesulfonic acid], tetrasodium salt]",anticomplementary effect / activity as complement inhibitor,complement system,anticomplementary effect
NCCCCCC(=O)O [epsilon-aminocaproic acid],treatment of hereditary angioneurotic edema,[2],used with success
NC[C@H]1CC[C@H](C(=O)O)CC1 [tranexamic acid],treatment of hereditary angioneurotic edema,[2],used with success
heparin,anticomplementary effect / activity as complement inhibitor,complement system,anticomplementary effect
pentosan-polysulfoester,anticomplementary activity on human serum,[3],anticomplementary activity
same,anticomplementary activity on human serum,[4],anticomplementary activity
